From PMC4457528, “Identification of Novel Small Molecule Inhibitors of Oncogenic RET Kinase” (PLoS ONE, 2015)
Like-named read-outs stand apart in the source and are kept apart here.

Key:
Experiment in all cases: KinomeScan kinase panel, single concentration 10 µM
Type in all cases: binding
KinomeScan kinase panel [1] = biological target: T1, KinomeScan kinase panel (Homo sapiens, UniProt P10721); conditions: KIT, 10 µM; read-out: score (%)
T1 construct: purchased DiscoveRx (KinomeScan)

KinomeScan kinase panel [2] = biological target: T2, KinomeScan kinase panel (Homo sapiens, UniProt O15530); conditions: PDPK1, 10 µM; read-out: score (%)
T2 construct: purchased DiscoveRx (KinomeScan)
T2 sequence (O15530 1-556): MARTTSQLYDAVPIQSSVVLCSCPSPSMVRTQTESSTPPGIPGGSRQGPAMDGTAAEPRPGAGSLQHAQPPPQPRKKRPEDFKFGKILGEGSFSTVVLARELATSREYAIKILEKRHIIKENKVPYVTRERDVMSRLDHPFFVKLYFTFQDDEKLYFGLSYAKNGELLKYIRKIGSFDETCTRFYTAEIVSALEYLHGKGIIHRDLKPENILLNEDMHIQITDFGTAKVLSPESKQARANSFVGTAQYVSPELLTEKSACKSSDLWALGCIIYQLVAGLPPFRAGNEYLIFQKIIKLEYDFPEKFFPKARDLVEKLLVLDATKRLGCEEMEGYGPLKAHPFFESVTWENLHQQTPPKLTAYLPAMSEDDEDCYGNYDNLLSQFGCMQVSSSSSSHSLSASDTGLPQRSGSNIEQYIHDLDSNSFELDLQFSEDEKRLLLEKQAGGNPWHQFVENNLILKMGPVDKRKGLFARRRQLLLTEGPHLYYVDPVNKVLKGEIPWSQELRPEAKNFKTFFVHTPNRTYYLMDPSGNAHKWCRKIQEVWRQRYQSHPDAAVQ

KinomeScan kinase panel [3] = biological target: T3, KinomeScan kinase panel (Homo sapiens, UniProt Q9H1R3); conditions: MYLK2, 10 µM; read-out: score (%)
T3 construct: purchased DiscoveRx (KinomeScan)

KinomeScan kinase panel [4] = biological target: T4, KinomeScan kinase panel (Homo sapiens, UniProt Q86UX6); conditions: kinase YANK3; 10 µM; read-out: score (%)
T4 construct: purchased DiscoveRx (KinomeScan)

KinomeScan kinase panel [5] = biological target: T5, KinomeScan kinase panel (Homo sapiens, UniProt P07947); conditions: kinase YES; 10 µM; read-out: score (%)
T5 construct: purchased DiscoveRx (KinomeScan)
T5 sequence (P07947 whole entry): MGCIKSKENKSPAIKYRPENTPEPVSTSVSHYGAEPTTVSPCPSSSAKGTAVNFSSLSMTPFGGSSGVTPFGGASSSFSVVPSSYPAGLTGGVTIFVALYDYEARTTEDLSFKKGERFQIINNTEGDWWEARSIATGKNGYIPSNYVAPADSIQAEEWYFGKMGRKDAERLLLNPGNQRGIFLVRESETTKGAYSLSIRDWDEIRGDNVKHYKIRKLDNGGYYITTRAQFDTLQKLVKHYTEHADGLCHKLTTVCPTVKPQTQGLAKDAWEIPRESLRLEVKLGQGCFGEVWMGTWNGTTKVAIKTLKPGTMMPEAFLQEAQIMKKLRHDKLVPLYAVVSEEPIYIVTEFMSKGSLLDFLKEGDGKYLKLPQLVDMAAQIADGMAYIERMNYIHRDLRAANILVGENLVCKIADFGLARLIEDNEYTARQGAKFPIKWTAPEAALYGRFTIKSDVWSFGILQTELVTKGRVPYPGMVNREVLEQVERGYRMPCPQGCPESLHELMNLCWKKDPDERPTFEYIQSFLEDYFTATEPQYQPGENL

KinomeScan kinase panel [6] = biological target: T6, KinomeScan kinase panel (Homo sapiens, UniProt O43293); conditions: DAPK3, 10 µM; read-out: score (%)
T6 construct: purchased DiscoveRx (KinomeScan)

KinomeScan kinase panel [7] = biological target: T7, KinomeScan kinase panel (Homo sapiens, UniProt Q9Y5S2); conditions: MRCKB, 10 µM; read-out: score (%)
T7 construct: purchased DiscoveRx (KinomeScan)
T7 sequence (Q9Y5S2 whole entry): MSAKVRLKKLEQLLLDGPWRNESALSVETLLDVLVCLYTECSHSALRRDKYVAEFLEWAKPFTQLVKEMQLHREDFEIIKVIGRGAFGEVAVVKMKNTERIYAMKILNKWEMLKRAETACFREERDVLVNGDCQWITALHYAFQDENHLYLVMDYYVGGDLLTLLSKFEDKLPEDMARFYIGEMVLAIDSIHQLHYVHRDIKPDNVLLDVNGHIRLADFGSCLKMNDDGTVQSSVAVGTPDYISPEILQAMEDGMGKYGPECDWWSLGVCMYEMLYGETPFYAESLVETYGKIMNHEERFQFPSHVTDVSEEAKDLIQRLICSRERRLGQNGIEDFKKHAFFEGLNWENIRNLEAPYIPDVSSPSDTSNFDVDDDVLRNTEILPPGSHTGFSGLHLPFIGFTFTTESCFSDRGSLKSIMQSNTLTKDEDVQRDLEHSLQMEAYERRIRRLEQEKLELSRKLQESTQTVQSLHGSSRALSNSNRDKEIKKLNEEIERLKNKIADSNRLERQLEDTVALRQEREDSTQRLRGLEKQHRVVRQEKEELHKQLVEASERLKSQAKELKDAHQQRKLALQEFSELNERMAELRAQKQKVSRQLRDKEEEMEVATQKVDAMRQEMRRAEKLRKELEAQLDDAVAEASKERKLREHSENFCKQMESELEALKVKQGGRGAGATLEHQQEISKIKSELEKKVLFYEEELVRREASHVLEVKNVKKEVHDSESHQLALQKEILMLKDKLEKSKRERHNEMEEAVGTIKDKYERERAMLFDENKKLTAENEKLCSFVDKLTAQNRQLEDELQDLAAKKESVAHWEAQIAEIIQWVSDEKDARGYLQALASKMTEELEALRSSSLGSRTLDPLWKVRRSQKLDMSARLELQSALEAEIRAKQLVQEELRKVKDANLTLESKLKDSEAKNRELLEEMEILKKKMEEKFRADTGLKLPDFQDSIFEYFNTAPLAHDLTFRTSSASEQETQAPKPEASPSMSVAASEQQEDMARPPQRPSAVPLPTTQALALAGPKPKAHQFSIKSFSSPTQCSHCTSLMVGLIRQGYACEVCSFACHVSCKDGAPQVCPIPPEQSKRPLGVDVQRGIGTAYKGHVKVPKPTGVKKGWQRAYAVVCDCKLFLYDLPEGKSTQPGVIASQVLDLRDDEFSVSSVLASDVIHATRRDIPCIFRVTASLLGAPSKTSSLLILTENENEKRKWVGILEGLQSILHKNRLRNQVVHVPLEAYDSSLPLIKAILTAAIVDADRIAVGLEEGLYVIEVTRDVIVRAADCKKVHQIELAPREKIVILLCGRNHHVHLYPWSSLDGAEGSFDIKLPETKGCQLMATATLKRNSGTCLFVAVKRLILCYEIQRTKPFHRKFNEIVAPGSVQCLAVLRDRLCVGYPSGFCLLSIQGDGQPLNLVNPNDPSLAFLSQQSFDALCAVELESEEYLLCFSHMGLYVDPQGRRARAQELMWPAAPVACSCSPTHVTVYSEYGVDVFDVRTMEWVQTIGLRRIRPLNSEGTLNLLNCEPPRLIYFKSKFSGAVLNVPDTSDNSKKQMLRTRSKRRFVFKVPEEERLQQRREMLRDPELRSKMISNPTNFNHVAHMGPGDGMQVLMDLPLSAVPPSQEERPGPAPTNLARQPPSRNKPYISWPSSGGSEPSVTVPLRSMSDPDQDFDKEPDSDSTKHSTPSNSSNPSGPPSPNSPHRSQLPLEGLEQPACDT

KinomeScan kinase panel [8] = biological target: T8, KinomeScan kinase panel (Homo sapiens, UniProt Q96NX5); conditions: CAMK1G, 10 µM; read-out: score (%)
T8 construct: purchased DiscoveRx (KinomeScan)

KinomeScan kinase panel [9] = biological target: T9, KinomeScan kinase panel (Homo sapiens, UniProt Q9BRS2); conditions: read-out: score (%)
T9 construct: purchased DiscoveRx (KinomeScan)
T9 sequence (Q9BRS2 1-568): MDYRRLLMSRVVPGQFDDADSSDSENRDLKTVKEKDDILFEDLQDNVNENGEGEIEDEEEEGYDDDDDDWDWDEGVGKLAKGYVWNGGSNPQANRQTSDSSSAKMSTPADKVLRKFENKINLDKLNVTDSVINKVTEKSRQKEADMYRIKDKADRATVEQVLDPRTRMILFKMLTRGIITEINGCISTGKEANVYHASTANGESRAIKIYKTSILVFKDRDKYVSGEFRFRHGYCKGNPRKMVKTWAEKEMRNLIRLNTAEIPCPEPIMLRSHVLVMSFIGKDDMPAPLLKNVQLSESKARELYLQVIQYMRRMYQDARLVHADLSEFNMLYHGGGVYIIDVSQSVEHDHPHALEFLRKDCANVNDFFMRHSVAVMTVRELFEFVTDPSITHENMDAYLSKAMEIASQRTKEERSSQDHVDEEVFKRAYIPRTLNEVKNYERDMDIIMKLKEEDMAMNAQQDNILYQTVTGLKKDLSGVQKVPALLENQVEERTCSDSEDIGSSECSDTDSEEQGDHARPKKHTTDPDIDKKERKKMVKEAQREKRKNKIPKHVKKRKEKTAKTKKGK

KinomeScan kinase panel [10] = biological target: T10, KinomeScan kinase panel (Homo sapiens, UniProt P80192); conditions: MLK1, 10 µM; read-out: score (%)
T10 construct: purchased DiscoveRx (KinomeScan)

KinomeScan kinase panel [11] = biological target: T11, KinomeScan kinase panel (Homo sapiens, UniProt P14616); conditions: INSRR, 10 µM; read-out: score (%)
T11 construct: purchased DiscoveRx (KinomeScan)
T11 sequence (P14616 27-1297): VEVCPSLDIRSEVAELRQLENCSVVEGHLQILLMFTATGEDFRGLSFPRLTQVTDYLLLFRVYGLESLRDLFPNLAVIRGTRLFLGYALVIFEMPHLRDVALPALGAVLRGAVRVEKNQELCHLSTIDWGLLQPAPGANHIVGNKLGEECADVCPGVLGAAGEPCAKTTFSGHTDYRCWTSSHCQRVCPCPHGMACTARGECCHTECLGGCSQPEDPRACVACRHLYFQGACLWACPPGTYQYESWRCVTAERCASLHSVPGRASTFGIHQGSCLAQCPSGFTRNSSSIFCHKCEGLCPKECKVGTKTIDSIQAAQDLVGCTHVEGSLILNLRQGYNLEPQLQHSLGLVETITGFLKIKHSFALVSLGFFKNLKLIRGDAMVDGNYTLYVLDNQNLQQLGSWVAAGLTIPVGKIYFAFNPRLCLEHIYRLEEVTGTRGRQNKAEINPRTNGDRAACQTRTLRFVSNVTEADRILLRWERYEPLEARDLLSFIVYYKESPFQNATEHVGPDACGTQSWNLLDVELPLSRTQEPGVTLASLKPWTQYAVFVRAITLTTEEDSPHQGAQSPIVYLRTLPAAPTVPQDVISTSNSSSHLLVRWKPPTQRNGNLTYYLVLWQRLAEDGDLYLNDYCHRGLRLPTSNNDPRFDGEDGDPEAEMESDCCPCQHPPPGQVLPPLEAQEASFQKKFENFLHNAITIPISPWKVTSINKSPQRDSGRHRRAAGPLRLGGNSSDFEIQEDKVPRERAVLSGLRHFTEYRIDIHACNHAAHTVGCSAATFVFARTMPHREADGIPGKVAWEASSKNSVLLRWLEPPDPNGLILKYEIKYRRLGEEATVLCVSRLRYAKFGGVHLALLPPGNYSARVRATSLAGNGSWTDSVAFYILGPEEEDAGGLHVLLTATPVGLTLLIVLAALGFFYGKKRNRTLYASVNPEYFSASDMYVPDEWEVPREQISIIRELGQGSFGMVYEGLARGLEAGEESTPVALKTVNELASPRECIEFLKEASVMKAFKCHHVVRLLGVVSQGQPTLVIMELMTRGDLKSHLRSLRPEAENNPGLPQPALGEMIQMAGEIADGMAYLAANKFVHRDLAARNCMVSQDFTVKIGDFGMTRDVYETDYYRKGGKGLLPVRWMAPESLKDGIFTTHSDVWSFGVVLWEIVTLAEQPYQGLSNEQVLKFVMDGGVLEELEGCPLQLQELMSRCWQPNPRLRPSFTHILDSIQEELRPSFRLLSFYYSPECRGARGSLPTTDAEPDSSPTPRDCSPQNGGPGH

KinomeScan kinase panel [12] = biological target: T12, KinomeScan kinase panel (Homo sapiens, UniProt P00533, G719C); conditions: EGFR(G719C), 10 µM
T12 construct: purchased DiscoveRx (KinomeScan)
T12 sequence (P00533 25-1210 G719C): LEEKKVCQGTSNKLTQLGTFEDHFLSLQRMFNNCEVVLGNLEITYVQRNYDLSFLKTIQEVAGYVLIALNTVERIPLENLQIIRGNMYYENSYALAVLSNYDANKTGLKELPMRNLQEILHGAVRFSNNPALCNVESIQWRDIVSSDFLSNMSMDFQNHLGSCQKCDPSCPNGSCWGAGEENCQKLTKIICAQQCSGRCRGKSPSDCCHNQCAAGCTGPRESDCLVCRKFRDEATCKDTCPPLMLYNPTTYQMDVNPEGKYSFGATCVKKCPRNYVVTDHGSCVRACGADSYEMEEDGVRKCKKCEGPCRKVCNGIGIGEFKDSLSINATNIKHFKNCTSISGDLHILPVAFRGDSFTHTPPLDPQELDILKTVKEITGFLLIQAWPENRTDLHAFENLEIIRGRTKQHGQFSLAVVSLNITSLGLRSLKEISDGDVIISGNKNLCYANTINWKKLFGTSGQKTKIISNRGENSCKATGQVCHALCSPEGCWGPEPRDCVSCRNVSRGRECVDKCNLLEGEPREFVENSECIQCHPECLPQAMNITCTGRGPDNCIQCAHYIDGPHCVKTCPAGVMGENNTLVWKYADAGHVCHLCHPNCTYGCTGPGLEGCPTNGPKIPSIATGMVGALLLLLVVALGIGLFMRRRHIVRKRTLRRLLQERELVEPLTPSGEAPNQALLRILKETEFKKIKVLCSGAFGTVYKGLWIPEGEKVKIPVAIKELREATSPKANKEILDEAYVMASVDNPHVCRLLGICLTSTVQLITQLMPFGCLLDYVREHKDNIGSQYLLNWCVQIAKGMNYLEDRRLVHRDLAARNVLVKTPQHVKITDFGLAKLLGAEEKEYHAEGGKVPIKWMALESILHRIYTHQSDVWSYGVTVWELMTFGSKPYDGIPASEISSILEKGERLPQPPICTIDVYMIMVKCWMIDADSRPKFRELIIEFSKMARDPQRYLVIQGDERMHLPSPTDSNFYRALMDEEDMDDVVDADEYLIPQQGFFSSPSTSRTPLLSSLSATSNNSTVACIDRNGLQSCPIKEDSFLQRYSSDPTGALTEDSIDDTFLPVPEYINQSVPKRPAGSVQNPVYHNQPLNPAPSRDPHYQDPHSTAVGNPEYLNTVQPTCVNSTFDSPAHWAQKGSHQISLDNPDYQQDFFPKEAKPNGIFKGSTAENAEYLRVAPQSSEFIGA

KinomeScan kinase panel [13] = biological target: T13, KinomeScan kinase panel (Homo sapiens, UniProt P11309); conditions: PIM1, 10 µM; read-out: score (%)
T13 construct: purchased DiscoveRx (KinomeScan)
T13 sequence (P11309 whole entry): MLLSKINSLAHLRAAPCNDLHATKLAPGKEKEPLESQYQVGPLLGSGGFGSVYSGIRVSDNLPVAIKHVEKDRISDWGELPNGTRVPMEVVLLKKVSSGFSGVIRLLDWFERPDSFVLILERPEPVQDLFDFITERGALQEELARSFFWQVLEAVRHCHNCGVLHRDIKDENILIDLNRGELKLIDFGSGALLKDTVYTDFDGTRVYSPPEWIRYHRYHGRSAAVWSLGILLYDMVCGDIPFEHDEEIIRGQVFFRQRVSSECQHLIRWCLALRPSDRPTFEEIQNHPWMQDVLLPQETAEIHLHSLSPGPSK

KinomeScan kinase panel [14] = biological target: T14, KinomeScan kinase panel (Homo sapiens, UniProt Q14164); conditions: IKK-epsilon, 10 µM; read-out: score (%)
T14 construct: purchased DiscoveRx (KinomeScan)
T14 sequence (Q14164 1-716): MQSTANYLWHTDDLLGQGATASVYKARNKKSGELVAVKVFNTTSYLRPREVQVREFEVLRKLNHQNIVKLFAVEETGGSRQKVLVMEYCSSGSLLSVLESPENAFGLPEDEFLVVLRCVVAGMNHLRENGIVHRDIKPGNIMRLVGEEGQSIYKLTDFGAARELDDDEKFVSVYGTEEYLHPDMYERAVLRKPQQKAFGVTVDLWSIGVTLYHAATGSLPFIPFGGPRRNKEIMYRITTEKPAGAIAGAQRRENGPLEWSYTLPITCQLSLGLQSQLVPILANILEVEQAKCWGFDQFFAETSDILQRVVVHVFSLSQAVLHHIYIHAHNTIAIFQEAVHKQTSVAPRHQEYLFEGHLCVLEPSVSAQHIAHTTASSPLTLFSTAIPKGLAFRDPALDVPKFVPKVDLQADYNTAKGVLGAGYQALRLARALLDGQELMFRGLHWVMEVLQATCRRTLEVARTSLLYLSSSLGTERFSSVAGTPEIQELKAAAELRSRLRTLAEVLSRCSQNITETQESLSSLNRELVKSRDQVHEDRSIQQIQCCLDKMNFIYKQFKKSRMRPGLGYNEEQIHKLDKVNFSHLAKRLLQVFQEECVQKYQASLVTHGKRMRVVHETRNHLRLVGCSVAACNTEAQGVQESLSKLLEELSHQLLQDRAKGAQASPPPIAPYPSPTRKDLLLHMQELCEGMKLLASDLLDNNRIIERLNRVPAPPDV

KinomeScan kinase panel [15] = biological target: T15, KinomeScan kinase panel (Homo sapiens, UniProt Q9HAZ1); conditions: CLK4, 10 µM; read-out: score (%)
T15 construct: purchased DiscoveRx (KinomeScan)

## CCN1CCN(Cc2ccc(NC(=O)c3ccc(C)c(NC(=O)c4cncc(-c5cccs5)c4)c3)cc2C(F)(F)F)CC1 [ALW-II-41-27]
KinomeScan kinase panel [1]
  remaining binding at 10 µM: 0%
KinomeScan kinase panel [2]
  remaining binding at 10 µM: > 30%
KinomeScan kinase panel [3]
  remaining binding at 10 µM: > 30%
KinomeScan kinase panel [4]
  remaining binding at 10 µM: > 30%
KinomeScan kinase panel [5]
  remaining binding at 10 µM: 0.1%
KinomeScan kinase panel [6]
  remaining binding at 10 µM: > 30%
KinomeScan kinase panel [7]
  remaining binding at 10 µM: > 30%
KinomeScan kinase panel [8]
  remaining binding at 10 µM: > 30%
KinomeScan kinase panel [9]; RIOK1, 10 µM
  remaining binding at 10 µM: > 30%
KinomeScan kinase panel [10]
  remaining binding at 10 µM: > 30%
KinomeScan kinase panel [11]
  remaining binding at 10 µM: 8.8%
KinomeScan kinase panel [12]
  score (%): 0.15%
KinomeScan kinase panel [13]
  remaining binding at 10 µM: > 30%
KinomeScan kinase panel [14]
  remaining binding at 10 µM: > 30%
KinomeScan kinase panel [15]
  remaining binding at 10 µM: 5.3%

## CCN1CCN(Cc2ccc(NC(=O)c3ccc(C)c(/C=C/c4cnc5[nH]ccc5c4Cl)c3)cc2C(F)(F)F)CC1 [HG-6-63-01, (E)-3-(2-(4-chloro-1H-pyrrolo[2,3-b]pyridin-5-yl)vinyl)-N-(4-((4-ethylpiperazin-1-yl)methyl)-3-(trifluoromethyl)phenyl)-4-methylbenzamide]
KinomeScan kinase panel [1]
  remaining binding at 10 µM: 0%
KinomeScan kinase panel [2]
  remaining binding at 10 µM: > 30%
KinomeScan kinase panel [3]
  remaining binding at 10 µM: 0.25%
KinomeScan kinase panel [4]
  remaining binding at 10 µM: > 30%
KinomeScan kinase panel [5]
  remaining binding at 10 µM: 0.85%
KinomeScan kinase panel [6]
  remaining binding at 10 µM: > 30%
KinomeScan kinase panel [7]
  remaining binding at 10 µM: 30%
KinomeScan kinase panel [8]
  remaining binding at 10 µM: > 30%
KinomeScan kinase panel [9]; RIOK1, 10 µM
  remaining binding at 10 µM: 0.2%
KinomeScan kinase panel [10]
  remaining binding at 10 µM: 0.6%
KinomeScan kinase panel [11]
  remaining binding at 10 µM: > 30%
KinomeScan kinase panel [12]
  score (%): 0.1%
KinomeScan kinase panel [13]
  remaining binding at 10 µM: > 30%
KinomeScan kinase panel [14]
  remaining binding at 10 µM: > 30%
KinomeScan kinase panel [15]
  remaining binding at 10 µM: > 30%

## CCN1CCN(Cc2ccc(NC(=O)c3ccc(C)c(C#Cc4cccnc4)c3)cc2C(F)(F)F)CC1 [XMD15-44]
KinomeScan kinase panel [1]
  remaining binding at 10 µM: 0%
KinomeScan kinase panel [2]
  remaining binding at 10 µM: 84%
KinomeScan kinase panel [3]
  remaining binding at 10 µM: 3.4%
KinomeScan kinase panel [4]
  remaining binding at 10 µM: 75%
KinomeScan kinase panel [5]
  remaining binding at 10 µM: 0.1%
KinomeScan kinase panel [6]
  remaining binding at 10 µM: > 30%
KinomeScan kinase panel [7]
  remaining binding at 10 µM: > 30%
KinomeScan kinase panel [8]
  remaining binding at 10 µM: > 30%
KinomeScan kinase panel [9]; kinase RIOK1, 10 µM
  remaining binding at 10 µM: 90%
KinomeScan kinase panel [10]
  remaining binding at 10 µM: > 30%
KinomeScan kinase panel [11]
  remaining binding at 10 µM: > 30%
KinomeScan kinase panel [12]
  score (%): 0.75%
KinomeScan kinase panel [13]
  remaining binding at 10 µM: 84%
KinomeScan kinase panel [14]
  remaining binding at 10 µM: > 30%
KinomeScan kinase panel [15]
  remaining binding at 10 µM: 15%
